16 compounds from patent US20230148214A1, “INDAZOLES AND AZAINDAZOLES AS LRRK2 INHIBITORS” (ESCAPE Bio, Inc., priority 2020, published 2023) can be followed below.

For orientation: IC50 means the concentration that gives 50% inhibition.

In one test the target is T1, LRRK2 G2019S (Homo sapiens, UniProt Q5S007, G2019S).
T1 construct: purchased Life Technologies PV4881
As to the kind of experiment: LRRK2 Kinase Activity Assay (LanthaScreen TR-FRET), G2019S. It is filed as biochemical. The conditions noted are these: recombinant G2019S-LRRK2, 25 μM ATP, 400 nM LRRKtide, 60 min; class symbols. Summed up: (§1)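 Recombinant wild-type or G2019S LRRK2 incubated with fluorescein-labeled LRRKtide (ERM-based) peptide, ATP and serially diluted compound for 60 min at room temperature.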
Background: Time-resolved FRET reads energy transfer from a long-lived donor to a nearby acceptor.

Another test concerns the target T2, LRRK2 WT (Homo sapiens, UniProt Q5S007).
T2 construct: purchased Life Technologies PR8604B
Put plainly: LRRK2 Kinase Activity Assay (LanthaScreen TR-FRET), wild type. It is filed as biochemical. The following applies: recombinant wild type LRRK2, 25 μM ATP, 400 nM LRRKtide, 60 min; class symbols. Put shortly:
as §1

Structures are written as SMILES.

T2 sequence (Q5S007 whole entry): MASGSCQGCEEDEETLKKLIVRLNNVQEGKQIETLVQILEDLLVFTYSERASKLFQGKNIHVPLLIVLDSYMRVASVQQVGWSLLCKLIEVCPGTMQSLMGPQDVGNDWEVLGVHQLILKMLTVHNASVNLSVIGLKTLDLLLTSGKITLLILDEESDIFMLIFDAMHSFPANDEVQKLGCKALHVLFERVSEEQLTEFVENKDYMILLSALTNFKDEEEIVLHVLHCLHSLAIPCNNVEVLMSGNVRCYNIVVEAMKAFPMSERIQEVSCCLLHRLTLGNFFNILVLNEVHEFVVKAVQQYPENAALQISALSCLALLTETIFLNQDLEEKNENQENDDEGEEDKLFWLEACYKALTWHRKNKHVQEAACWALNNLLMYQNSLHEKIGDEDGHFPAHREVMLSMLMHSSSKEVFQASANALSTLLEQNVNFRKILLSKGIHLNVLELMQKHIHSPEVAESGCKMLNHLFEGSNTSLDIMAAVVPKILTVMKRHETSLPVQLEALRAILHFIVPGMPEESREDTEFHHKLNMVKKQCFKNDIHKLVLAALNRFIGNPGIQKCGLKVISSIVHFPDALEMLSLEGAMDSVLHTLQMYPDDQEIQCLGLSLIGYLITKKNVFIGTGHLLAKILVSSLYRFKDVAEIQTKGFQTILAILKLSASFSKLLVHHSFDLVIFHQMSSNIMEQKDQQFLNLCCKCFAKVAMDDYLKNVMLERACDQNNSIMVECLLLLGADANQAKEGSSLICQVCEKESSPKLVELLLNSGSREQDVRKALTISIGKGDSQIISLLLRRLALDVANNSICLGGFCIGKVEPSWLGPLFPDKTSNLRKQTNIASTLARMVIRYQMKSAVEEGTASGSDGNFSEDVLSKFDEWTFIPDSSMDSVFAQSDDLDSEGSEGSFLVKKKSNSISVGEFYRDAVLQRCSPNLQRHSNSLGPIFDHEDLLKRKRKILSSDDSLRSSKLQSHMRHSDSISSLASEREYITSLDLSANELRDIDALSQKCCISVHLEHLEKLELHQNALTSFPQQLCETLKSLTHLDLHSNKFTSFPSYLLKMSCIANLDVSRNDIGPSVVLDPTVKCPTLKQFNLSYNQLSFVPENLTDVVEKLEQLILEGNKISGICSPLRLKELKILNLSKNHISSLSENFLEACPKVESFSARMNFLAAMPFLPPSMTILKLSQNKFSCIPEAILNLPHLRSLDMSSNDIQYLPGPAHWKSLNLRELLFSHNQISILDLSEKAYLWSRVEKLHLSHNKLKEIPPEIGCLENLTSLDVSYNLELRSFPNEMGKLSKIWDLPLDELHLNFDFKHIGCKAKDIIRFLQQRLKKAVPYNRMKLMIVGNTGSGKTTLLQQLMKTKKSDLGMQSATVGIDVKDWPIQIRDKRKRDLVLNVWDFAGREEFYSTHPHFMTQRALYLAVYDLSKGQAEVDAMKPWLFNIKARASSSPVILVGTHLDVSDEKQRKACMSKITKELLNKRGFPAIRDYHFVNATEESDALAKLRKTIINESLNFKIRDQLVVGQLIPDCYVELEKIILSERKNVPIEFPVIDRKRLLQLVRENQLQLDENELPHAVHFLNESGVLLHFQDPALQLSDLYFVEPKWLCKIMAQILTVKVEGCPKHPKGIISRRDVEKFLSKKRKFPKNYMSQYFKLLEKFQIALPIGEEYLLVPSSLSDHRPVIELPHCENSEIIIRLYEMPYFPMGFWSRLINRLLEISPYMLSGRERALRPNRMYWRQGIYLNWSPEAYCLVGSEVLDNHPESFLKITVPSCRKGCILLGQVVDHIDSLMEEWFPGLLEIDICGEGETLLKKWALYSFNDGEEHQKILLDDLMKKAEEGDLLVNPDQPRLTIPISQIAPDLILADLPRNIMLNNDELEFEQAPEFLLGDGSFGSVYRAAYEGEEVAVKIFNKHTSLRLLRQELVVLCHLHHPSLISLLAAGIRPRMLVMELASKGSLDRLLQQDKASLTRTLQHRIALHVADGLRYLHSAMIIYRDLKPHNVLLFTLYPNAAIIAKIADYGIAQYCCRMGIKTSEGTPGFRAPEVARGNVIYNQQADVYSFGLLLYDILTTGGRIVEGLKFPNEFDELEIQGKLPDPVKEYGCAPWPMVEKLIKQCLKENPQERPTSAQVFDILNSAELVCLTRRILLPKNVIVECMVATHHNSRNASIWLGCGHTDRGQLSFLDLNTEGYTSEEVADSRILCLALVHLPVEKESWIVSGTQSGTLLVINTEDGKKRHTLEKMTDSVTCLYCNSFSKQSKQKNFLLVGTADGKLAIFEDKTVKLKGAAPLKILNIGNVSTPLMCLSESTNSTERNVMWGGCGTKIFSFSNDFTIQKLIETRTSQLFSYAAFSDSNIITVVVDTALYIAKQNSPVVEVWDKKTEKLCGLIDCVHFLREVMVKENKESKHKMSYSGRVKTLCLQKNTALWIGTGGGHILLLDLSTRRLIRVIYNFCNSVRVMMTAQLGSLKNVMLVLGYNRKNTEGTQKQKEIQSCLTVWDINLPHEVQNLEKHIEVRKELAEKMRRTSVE
T1 sequence (Q5S007 whole entry G2019S): as the sequence (Q5S007 whole entry) above, with G2019S counted along it

In the case of `C[C@@H]1C[C@@H](Nc2ccc3[nH]nc(-c4cnco4)c3c2)c2ccc(C#N)cc21` (single isomer, unassigned) [Example 168, enantiomer 2, trans-3-Methyl-1-[[3-(1,3-oxazol-5-yl)-1H-indazol-5-yl]amino]-2,3-dihydro-1H-indene-5-carbonitrile], the IC50 was less than 0.1 µM at LRRK2 G2019S and 0.1 to 1 µM at LRRK2 WT.
On the same counts, the results for `C[C@H]1C[C@@H](Nc2ccc3[nH]nc(-c4cnco4)c3c2)c2ccc(C#N)cc21` (single isomer, unassigned) [Example 169, enantiomer 1, cis-3-Methyl-1-[[3-(1,3-oxazol-5-yl)-1H-indazol-5-yl]amino]-2,3-dihydro-1H-indene-5-carbonitrile] are less than 0.1 µM and 0.1 to 1 µM.
On the same counts, the results for `C[C@H]1C[C@@H](Nc2ccc3[nH]nc(-c4cnco4)c3c2)c2ccc(C#N)cc21` (single isomer, unassigned) [Example 169, enantiomer 2, cis-3-Methyl-1-[[3-(1,3-oxazol-5-yl)-1H-indazol-5-yl]amino]-2,3-dihydro-1H-indene-5-carbonitrile] are less than 0.1 µM and 0.1 to 1 µM.
On the same counts, the results for `Cc1nc2c(c(C)c1C#N)CC[C@@H]2Nc1ccc2[nH]nc(-c3cnco3)c2c1` (single isomer, unassigned) [Example 170, enantiomer 1, 2,4-Dimethyl-7-[[3-(1,3-oxazol-5-yl)-1H-indazol-5-yl]amino]-6,7-dihydro-5H-cyclopenta[b]pyridine-3-carbonitrile] are less than 0.1 µM and less than 0.1 µM.
On to `Cc1nc2c(c(C)c1C#N)CC[C@@H]2Nc1ccc2[nH]nc(-c3cnco3)c2c1` (single isomer, unassigned) [Example 170, enantiomer 2, 2,4-Dimethyl-7-[[3-(1,3-oxazol-5-yl)-1H-indazol-5-yl]amino]-6,7-dihydro-5H-cyclopenta[b]pyridine-3-carbonitrile], for which the IC50 on LRRK2 G2019S is less than 0.1 µM; on LRRK2 WT it was 0.1 to 1 µM.
The like results for `N#Cc1cc2c(nc1Cl)[C@@H](Oc1ccc3[nH]nc(-c4cnco4)c3c1)CC2` (single isomer, unassigned) [Example 171, enantiomer 1, 2-Chloro-7-[[3-(1,3-oxazol-5-yl)-1H-indazol-5-yl]oxy]-6,7-dihydro-5H-cyclopenta[b]pyridine-3-carbonitrile] were, in that order, less than 0.1 µM and less than 0.1 µM.
On the same counts, the results for `CC1(C)Cc2cc(C#N)cnc2[C@H]1Nc1ccc2[nH]nc(-c3cnco3)c2c1` (single isomer, unassigned) [Example 172, enantiomer 1, 6,6-Dimethyl-7-[[3-(1,3-oxazol-5-yl)-1H-indazol-5-yl]amino]-5,7-dihydrocyclopenta[b]pyridine-3-carbonitrile] are 0.1 to 1 µM and 0.1 to 1 µM.
The like results for `CC1(C)Cc2cc(C#N)cnc2[C@H]1Nc1ccc2[nH]nc(-c3cnco3)c2c1` (single isomer, unassigned) [Example 172, enantiomer 2, 6,6-Dimethyl-7-[[3-(1,3-oxazol-5-yl)-1H-indazol-5-yl]amino]-5,7-dihydrocyclopenta[b]pyridine-3-carbonitrile] were, in that order, less than 0.1 µM and less than 0.1 µM.
Turning to `C[C@H]1CCc2cc(C#N)ccc2[C@H]1Nc1ccc2[nH]nc(-c3cnco3)c2c1` (single isomer, unassigned) [Example 173, enantiomer 1, cis-6-Methyl-5-((3-(oxazol-5-yl)-1H-indazol-5-yl)amino)-5,6,7,8-tetrahydronaphthalene-2-carbonitrile], the IC50 on LRRK2 G2019S and at LRRK2 WT was less than 0.1 µM throughout.
In the case of `C[C@H]1CCc2cc(C#N)ccc2[C@H]1Nc1ccc2[nH]nc(-c3cnco3)c2c1` (single isomer, unassigned) [Example 173, enantiomer 2, cis-6-Methyl-5-((3-(oxazol-5-yl)-1H-indazol-5-yl)amino)-5,6,7,8-tetrahydronaphthalene-2-carbonitrile], the half-maximal inhibitory concentration (IC50) on LRRK2 G2019S is less than 0.1 µM; on LRRK2 WT it was 0.1 to 1 µM.
The like results for `C[C@@H]1CCc2cc(C#N)ccc2[C@H]1Nc1ccc2[nH]nc(-c3cnco3)c2c1` (single isomer, unassigned) [Example 174, enantiomer 1, trans-6-Methyl-5-((3-(oxazol-5-yl)-1H-indazol-5-yl)amino)-5,6,7,8-tetrahydronaphthalene-2-carbonitrile] were, in that order, less than 0.1 µM and less than 0.1 µM.
On the same counts, the results for `C[C@@H]1CCc2cc(C#N)ccc2[C@H]1Nc1ccc2[nH]nc(-c3cnco3)c2c1` (single isomer, unassigned) [Example 174, enantiomer 2, trans-6-Methyl-5-((3-(oxazol-5-yl)-1H-indazol-5-yl)amino)-5,6,7,8-tetrahydronaphthalene-2-carbonitrile] are less than 0.1 µM and 0.1 to 1 µM.
The like results for `N#Cc1ccc2c(c1)CCC2Nc1ccc2[nH]nc(-c3ccoc3)c2c1` (centres unmarked) [Example 10, 1-((3-(Furan-3-yl)-1H-indazol-5-yl)amino)-2,3-dihydro-1H-indene-5-carbonitrile] were, in that order, less than 0.1 µM and 0.1 to 1 µM.
For `N#Cc1ccc2c(c1)CC[C@@H]2Oc1ccc2[nH]nc(I)c2c1` [Example 13, 1-((3-Iodo-1H-indazol-5-yl)oxy)-2,3-dihydro-1H-indene-5-carbonitrile], the values for the IC50 at LRRK2 G2019S and on LRRK2 WT were less than 0.1 µM and 0.1 to 1 µM, respectively.
On the same counts, the results for `N#Cc1cnc2c(c1)CC(F)(F)C2Nc1ccc2[nH]nc(-c3cnco3)c2c1` (centres unmarked) [Example 34, 6,6-Difluoro-7-((3-(oxazol-5-yl)-1H-indazol-5-yl)amino)-6,7-dihydro-5H-cyclopenta[b]pyridine-3-carbonitrile] are less than 0.1 µM and 0.1 to 1 µM.
The like results for `N#Cc1ccc2c(c1)CCC[C@@H]2Nc1ccc2[nH]nc(-c3ccc4ncsc4c3)c2c1` [Example 59, 5-((3-(Benzo[d]thiazol-6-yl)-1H-indazol-5-yl)amino)-5,6,7,8-tetrahydronaphthalene-2-carbonitrile] were, in that order, less than 0.1 µM and less than 0.1 µM.
